In publication PMC2561905 (Biochemistry, 2008):
Where two headings read alike, the source gives them in different places.

What was measured:
I48S [1] = details: read-out: Operator capture by LLhP and variants (× 10^-7 M hypoxanthine), lacO^disC; [co-repressor]mid; SD, n = 3
Q55V [2] = details: read-out: Operator capture by LLhP and variants (× 10^-7 M hypoxanthine), lacO^1; [co-repressor]mid; SD, n = 3
Q55V [3] = details: read-out: Operator capture by LLhP and variants (× 10^-7 M hypoxanthine), lacO^sym; [co-repressor]mid; SD, n = 3
Q55T [4] = details: read-out: Operator capture by LLhP and variants (× 10^-7 M hypoxanthine), lacO^disC; [co-repressor]mid; SD, n = 3
I48S [5] = details: read-out: Operator capture by LLhP and variants (× 10^-7 M hypoxanthine), lacO^1; [co-repressor]mid; SD, n = 3
Q55V [6] = details: read-out: Operator capture by LLhP and variants (× 10^-7 M hypoxanthine), lacO^disC; [co-repressor]mid; SD, n = 3
I48S [7] = details: read-out: Operator capture by LLhP and variants (× 10^-7 M hypoxanthine), lacO^sym; [co-repressor]mid; SD, n = 3
I48V [8] = details: read-out: Operator capture by LLhP and variants (× 10^-7 M hypoxanthine), lacO^1; [co-repressor]mid; SD, n = 3
S61C [9] = details: read-out: Operator capture by LLhP and variants (× 10^-7 M hypoxanthine), lacO^disC; [co-repressor]mid; SD, n = 3
LLhP [10] = details: read-out: Operator capture by LLhP and variants (× 10^-7 M hypoxanthine), lacO^sym; [co-repressor]mid; SD, n = 3
LLhP [11] = details: read-out: Operator capture by LLhP and variants (× 10^-7 M hypoxanthine), lacO^disC; [co-repressor]mid; SD, n = 3
I48V [12] = details: read-out: Operator capture by LLhP and variants (× 10^-7 M hypoxanthine), lacO^sym; [co-repressor]mid; SD, n = 3
Q55T [13] = details: read-out: Operator capture by LLhP and variants (× 10^-7 M hypoxanthine), lacO^1; [co-repressor]mid; SD, n = 3
LLhP [14] = details: read-out: Operator capture by LLhP and variants (× 10^-7 M hypoxanthine), lacO^1; [co-repressor]mid; SD, n = 3
S61M [15] = details: read-out: Operator capture by LLhP and variants (× 10^-7 M hypoxanthine), lacO^1; [co-repressor]mid; SD, n = 3
S61M [16] = details: read-out: Operator capture by LLhP and variants (× 10^-7 M hypoxanthine), lacO^disC; [co-repressor]mid; SD, n = 3
S61C [17] = details: read-out: Operator capture by LLhP and variants (× 10^-7 M hypoxanthine), lacO^1; [co-repressor]mid; SD, n = 3
Q55T [18] = details: read-out: Operator capture by LLhP and variants (× 10^-7 M hypoxanthine), lacO^sym; [co-repressor]mid; SD, n = 3
I48V [19] = details: read-out: Operator capture by LLhP and variants (× 10^-7 M hypoxanthine), lacO^disC; [co-repressor]mid; SD, n = 3
lacO^sym operator DNA = details: LacI without inducer; cited from earlier work
lacO^1 operator DNA = assay: Operator capture experiment with lacO^1; type: binding, E. coli; details: curves super-imposable for three different operator sequences
lacO^disC operator DNA = assay: Nitrocellulose filter binding, DNA-binding affinity for lacO^disC; details: LLhP+HX compared with LacI without inducer

O=c1[nH]cnc2[nH]cnc12 [hypoxanthine, hypoxanthine (HX)]
EC50 (I48S [1]): 1600 ± 180 nM | EC50 (Q55V [2]): 1000 ± 130 nM | EC50 (Q55V [3]): 850 ± 60 nM | EC50 (Q55T [4]): 2100 ± 160 nM | EC50 (I48S [5]): 950 ± 70 nM | EC50 (Q55V [6]): 2200 ± 80 nM | EC50 (I48S [7]): 670 ± 60 nM | EC50 (I48V [8]): 880 ± 60 nM | EC50 (S61C [9]): 8000 ± 270 nM | EC50 (LLhP [10]): 550 ± 230 nM | EC50 (LLhP [11]): 370 ± 80 nM | EC50 (I48V [12]): 570 ± 50 nM | EC50 (Q55T [13]): 1000 ± 80 nM | EC50 (LLhP [14]): 410 ± 70 nM | EC50 (S61M [15]): 5900 ± 340 nM | EC50 (S61M [16]): 11700 ± 1200 nM | EC50 (S61C [17]): 4700 ± 410 nM | EC50 (Q55T [18]): 430 ± 40 nM | EC50 (I48V [19]): 3300 ± 160 nM

B1: LacI: lactose repressor protein, naturally-occurring LacI/GalR homologue used for comparison (protein, UniProt P03023 1-360, looked up)
Lactose operon repressor: MKPVTLYDVAEYAGVSYQTVSRVVNQASHVSAKTREKVEAAMAELNYIPNRVAQQLAGKQSLLIGVATSSLALHAPSQIVAAIKSRADQLGASVVVSMVERSGVEACKAAVHNLLAQRVSGLIINYPLDDQDAIAVEAACTNVPALFLDVSDQTPINSIIFSHEDGTRLGVEHLVALGHQQIALLAGPLSSVSARLRLAGWHKYLTRNQIQPIAEREGDWSAMSGFQQTMQMLNEGIVPTAMLVANDQMALGAMRAITESGLRVGADISVVGYDDTEDSSCYIPPLTTIKQDFRLLGQTSVDRLLQLSQGQAVKGNQLLPVSLVKRKTTLAPNTQTASPRALADSLMQLARQVSRLESGQ
Tighter binding of lacO^sym than lacO^1 (lacO^sym operator DNA): ~10 fold

B2: LLhP: chimeric repressor: LacI DNA-binding domain, LacI linker and PurR regulatory domain; homodimer (protein)
chain: MKPVTLYDVAEYAGVSYQTVSRVVNQASHVSAKTREKVEAAMAELNYIPNRVAQQLAGKQSLLIGVATSSLALHAPSQIVAAIKSRADQLGASVVVSMVERSGVEACKAAVHNLLAQRVSGLIINYPLDDQDAIAVEAACTNVPALFLDVSDQTPINSIIFSHEDGTRLGVEHLVALGHQQIALLAGPLSSVSARLRLAGWHKYLTRNQIQPIAEREGDWSAMSGFQQTMQMLNEGIVPTAMLVANDQMALGAMRAITESGLRVGADISVVGYDDTEDSSCYIPPLTTIKQDFRLLGQTSVDRLLQLSQGQAVKGNQLLPVSLVKRKTTLAPNATIKDVAKRANVSTTTVSHVINKTRFVAEETRNAVWAAIKELHYSPSAVARSLKVNHTKSIGLLATSSEAAYFAEIIEAVEKNCFQKGYTLILGNAWNNLEKQRAYLSMMAQKRVDGLLVMCSEYPEPLLAMLEEYRHIPMVVMDWGEAKADFTDAVIDNAFEGGYMAGRYLIERGHREIGVIPGPLERNTGAGRLAGFMKAMEEAMIKVPESWIVQGDFEPESGYRAMQQILSQPHRPTAVFCGGDIMAMGALCAADEMGLRVPQDVSLIGYDNVRNARYFTPALTTIHQPKDSLGETAFNMLLDRIVNKREEPQSIEVHPRLIERRSVADGPFRDYRR
Operator capture mid-point (lacO^1 operator DNA): around 4.4 × 10 ^−7 M hypoxanthine | Tighter binding of lacO^disC than LacI (lacO^disC operator DNA): ~30 fold
